Experimental data reported in patent publication US20260108687A1 (Belhaven BioPharma Inc., priority 2024, published 2026).

Assay: Phase 1 clinical study / Study 101: plasma epinephrine pharmacokinetics
Assay type: in vivo
Settings: human, 0.3 mg IM, read-out: mean baseline-corrected Cmax

- Cmax: 184 µg/mL
Compound: CNC[C@H](O)c1ccc(O)c(O)c1 [Epinephrine IM, epinephrine]
